According to US20260124311A1, “POLYMER-DRUG CONJUGATES FOR STING PATHWAY ACTIVATION” (Vanderbilt University, priority 2022, published 2026):

Legend:
[1] = system: STING knockout THP1 Dual cell line; assay: STING knockout THP1 Dual cell line reporter assay; assay type: cell-based, human; settings: FIG. 19C-D
IRF and NF-kb pathway = assay: THP-1 Dual reporter assay of IRF and NF-kb pathway activation; assay type: cell-based, human; settings: FIG. 19A-B
Experimental: Activation of STING. THP1-Dual cells (InvivoGen) were cultured in Roswell Park Memorial Institute (RPMI) 1640 Medium (Gibco) supplemented with 2 mM L-glutamine, 25 mM HEPES, 10% heat-inactivated fetal bovine serum (HI-FBS; Gibco), 100 U mL^−1, penicillin/100 μg mL^−1, streptomycin (Gibco), and 100 μg/mL Normocin. Cells were subjected to 10 μg/mL Blasticidin and 100 μg/mL Zeocin for continual selection after every cell passage. 96-well plates (REF 655180; Greiner Bio-One) were used for screening agonist activity. Reporter cells were seeded at 25,000 cells/well in 100 μL media and treatments were administered in 100 μL of medium. Results were collected 24 hours after treatment using a Quanti-Luc™ (InvivoGen) assay on cell supernatants following manufacturer's instructions. Luminescence was quantified using a plate reader (Synergy H1 Multi-Mode Microplate Reader; Biotek) after supernatants were transferred to opaque-bottom 96-well plates (REF 655073; Greiner Bio-One).

[2] = system: Interferon-β, CXCL10, TNF, IL-6; assay: PCR analysis of kinetics of STING-mediated gene expression; assay type: cell-based
[3] = system: GFP-STING expressing murine embryonic fibroblasts; settings: FIG. 21
THP-1 Dual cells = assay: Cellular uptake by flow cytometry at 37° C. and 4° C.; assay type: cell-based, human; settings: FIG. 22A-B
Description: To confirm the dependence of cellular uptake on endocytosis, a RAFT polymerization was used to synthesize a fluorescent version of 50 kDa DMA-diABZI (36) in which a small amount of azide propyl methacrylamide (2%) was co-polymerized to allow for covalent conjugation to DBCO-Sulfo-Cy5 dye, yielding compound (37), which had 2 Sulfo-Cy5 molecules per chain. […] Therefore, DMA-diABZI appears to cells via endocytosis where it can activate STING signaling within ˜2 hr.

Substance | IRF and NF-κβ responses in STING knockout cells [1] | IRF and NF-kb pathway activation (IRF and NF-kb pathway) | time to activation of STING signaling after endocytosis [2] [h] | STING activation dynamics (STING-puncta, confocal) [3] | cellular uptake at 4° C. versus 37° C. (THP-1 Dual cells)
diABZI(CTA)-DMA-50k [50 kDa diABZI-DMA (33)] | lack of activity | both signaling pathways are engaged | ≤ 2 | delayed STING activation | –
diABZI-DMA-co-AzPMA-Sulfo-Cy5 [sCy5-labeled DMA-diABZI (37)] | – | – | – | – | nearly completely abrogated
